Measurements published in patent US11896612B2, “Resurrection of antibiotics that MRSA resists by silver-doped bioactive glass-ceramic particles” (Board of Trustees of Michigan State University, priority 2019, dated 2024).
“Also recorded” adds a separate entry of the source.

Experiments:
[1] = tested on: methicillin-resistant S. aureus USA300 JE2; assay: Antibacterial test: CFU enumeration of MRSA suspended in PBS (growth-arrested); format: cell-based, Staphylococcus aureus; conditions: 24 hours; for bacterial inhibition by antibiotic alone: PBS, static, oxacillin 0.1-50 μg/ml, vancomycin up to 10 mg/ml, fosfomycin 0.05-50 μg/ml, gentamicin 0.01 μg/ml
Experimental: All experiments are conducted using the laboratory derived methicillin-resistant S. aureus USA300 JE2. Cells are streaked for isolation on tryptic soy agar (TSA) and cultured at 37° C. overnight. An isolated colony is then grown in broth (TSB), shaking at 225 rpm at 37° C. overnight. Next, 1 mL solution of MRSA in PBS, normalized to an optical density (OD600 nm) equal to 1 (equivalent to 10^8 CFU/mL) is prepared. The bacterial suspension is mixed in a 1:1 volume ratio, with each of the solutions containing twofold the final concentration of Ag-BG, antibiotic, or the indicated Ag-BG/antibiotic combination. An untreated control is also prepared by mixing the bacterial suspension in a 1:1 volume ratio with PBS.
Bacterial suspensions are placed in a 37° C. incubator for the indicated time. At each time point, an aliquot of the bacterial suspension is removed to enumerate colony forming units (CFU) of the bacteria via serial dilution and plating on TSA. All plates are incubated at 37° C. Quantification of CFU are performed in biological and technical triplicate. Measurements are repeated three times. Standard deviation is indicated as error bars. Statistical analysis is performed using the paired Student's t-test, two tailed, n=9 and p<0.05.
The bactericidal properties of Ag-BG alone, vancomycin alone (vanc) and the combination of Ag-BG with vancomycin (Ag-BG/vanc) were studied against laboratory-derived methicillin-resistant S. aureus (MRSA) USA300 JE241. The bacteria cells were prepared by isolation of a single colony, followed by its inoculation in tryptic soy broth overnight at 37° C. A bacterial suspension was prepared by adjusting the concentration of the overnight culture to 108 colony forming units (CFU)/mL in Phosphate Buffered Saline (PBS). Then, the bacterial suspension was mixed 1:1 with the corresponding treatment (Ag-BG, Ag-BG/vanc or vanc) to a final volume of 1 mL. A negative control was prepared by suspending bacteria 1:1 in PBS. After 24 h of incubation at 37° C., […] of suspension were drawn from the mixture for CFU enumeration in tryptic soy agar plates. The effect of the treatments was evaluated based on the decrease of CFU compared to the negative control. Quantification of CFU was performed in biological and technical triplicates.
Vancomycin (molecular formula: C66H75C12N9O24·HCl, Vancomycin hydrochloride) is a cell-wall targeting antibiotic with no effect against MRSA under growth-arrested conditions and was selected for this example. Here, the concentration dependency of this synergism was evaluated by exposing MRSA to different combinations of Ag-BG/vanc. Two experimental set-ups were considered. Initially, 0.5 mg/mL of vancomycin were delivered together with 1.25, 2.5, 3.75 or 6.5 mg/mL of Ag-BG and then, 2.5 mg/mL of Ag-BG were combined with 0.1, 0.3, 0.5 and 1 mg/mL of vancomycin. The Ag-BG powder was sterilized using UV radiation before exposure to bacteria. The antibiotic treatment was prepared by dilution of vancomycin powder at different concentrations in PBS, and the Ag-BG/vanc samples were prepared by mixing Ag-BG powder with the corresponding vancomycin solution.

MRSA [2] = assay: TEM and SEM imaging of MRSA after exposure; format: cell-based, Staphylococcus aureus; conditions: 24 hours exposure in PBS
Experimental: After 24 hours of incubation, solutions are prepared for studies with TEM to observe the morphology and ultrastructural properties of bacteria in each of the tested groups. The cultures are centrifuged and fixed using Karnovsky fixative, consisting of 2.5% glutaraldehyde, 2.5% paraformaldehyde and 0.1 M cacodylate buffer dissolved in deionized water. In the cases of the tested groups with Ag-BG particles, the particles are removed by allowing them to settle to the bottom of the Eppendorf microcentrifuge tubes before centrifugation and fixation. Bacteria pellets are suspended and incubated in fixative for 2 hours at room temperature. Next, the suspensions are centrifuged to remove the fixative. To capture bacteria in a solid matrix, a drop of a 2% agarose deionized water solution is added to the cell pellet. After the agarose solidifies, the matrix is washed three times at room temperature for 15 minutes with 0.1 M cacodylate buffer. A solution of 2% osmium tetroxide is used to stain the bacterial cells for 1 hour at the post-fixation stage. Subsequently, the cubes are washed with deionized water. Dehydration is done by a series of different concentrations of acetone: 25%, 50%, 75%, and 100%. Next, Spurr resin is infiltrated in a series of dilutions in acetone (acetone: resin): 3:1, 1:1, and 100% resin for two days. The cells are embedded in 100% Spurr resin at 60° C. for 24 hours and then, thin sections of less than 100 nm thickness are obtained by ultramicrotome (RMC MYX ultramicrotome) with glass knives and are mounted in bare copper grids. Positive staining is done with 2% uranyl acetate for 7 minutes and lead citrate for 3 minutes. Finally, samples are observed at 100 kV in a JEOL 100CX microscope.
Bacterial morphology upon exposure to Ag-BG particles is studied using SEM. Cells are prepared after 12 hours of exposure. In this case, the Ag-BG particles remain in the solution with the cells and are fixed using 2.5% glutaraldehyde, 2.5% paraformaldehyde, and 0.1 M cacodylate buffer dissolved in deionized water. […]

[3] = tested on: human mesenchymal stem cells (hBMSC); assay: Proliferation of human mesenchymal stem cells, CCK-8; format: cell-based; conditions: 0.2 mg/mL Ag2O in transwell, 4 days exposure
Experimental: Primary bone-marrow derived human mesenchymal stem cells (hBMSC) isolated from healthy donor were obtained from the Institute of Regenerative Medicine, Texas A&M University. Frozen vials of cells were thawed and cultured a in α-MEM supplemented with 16% fetal bovine serum, 1% Antibiotic-Antimycotic and 1% L-glutamine (hereafter, growth medium) in a humidified 37° C./5% CO2 incubator. Cells were expanded until 90% confluence to a final passage. Cells were enzymatically lifted, centrifuged for 5 min and re-suspended fresh media. Cells were seeded at a density of 15×10^3 cells/mL on each well of 24-well plate by pipetting 0.5 mL/well. After 24 h, Ag-BGN (5, 10 and 20 mg/mL) were transferred to porous transwells and inside the wells to treat cell for 2, 4, 6, 8 and 10 days. The results were compared to a positive control consisting on cell immersed only in media and a negative control consisting on cells treated with Ag2O exposed using a porous transwell. […]
After each time point, cell viability and proliferation were assessed introducing a CCK-8 kit solution in the wells after removing the transwells. After 2 h, […] were drawn and placed in a 96 well plate and its optical density was measured at 470 nm wavelength. […]

MRSA [4] = assay: Vancomycin susceptibility of MRSA cultured in tryptic soy broth (TSB); format: cell-based, Staphylococcus aureus
Experimental: Oxacillin and fosfomycin are used at 0.1 and 0.05 μg/ml, respectively—a concentration that is considerably lower than their MIC. Vancomycin (molecular formula: C66H75C12N9O24·HCl, Vancomycin hydrochloride) is selected due to a mechanism of action that is dependent on cell growth. MRSA is susceptible to 0.47 μg/ml of vancomycin when cultured in tryptic soy broth (TSB). However, exposure to vancomycin in growth arrested conditions, such as suspension in phosphate buffered saline (PBS), enhances tolerance to the antibiotic. Cells are exposed to 0.5 mg/ml vancomycin in PBS. […] All antibiotics are purchased from Sigma Aldrich in powder USP Reference Standard and are used without further purification.

eukaryotic cells = conditions: cited from earlier work
bacteria = conditions: cited from earlier work

| Molecule | bacterial inhibition by antibiotic alone [1] | bacterial ultrastructure by TEM (MRSA [2]) | further results |
| --- | --- | --- | --- |
| Gentamicin | does not inhibit significantly | – | concentration that significantly inhibits MRSA ([1]; static conditions): higher than 0.1 μg/ml |
| Cc1onc(-c2ccccc2)c1C(=O)N[C@@H]1C(=O)N2[C@@H]1SC(C)(C)[C@@H]2C(=O)O [oxacillin, Oxacillin] | no demonstrable bacterial inhibition | intact cells | – |
| [Ag+].[Ag+].[O-2] [Ag2O] | – | – | cell viability [3]: not viable |
| CN[C@H](CC(C)C)C(=O)N[C@H]1C(=O)N[C@@H](CC(N)=O)C(=O)N[C@H]2C(=O)N[C@H]3C(=O)N[C@H](C(=O)N[C@H](C(=O)O)c4cc(O)cc(O)c4-c4cc3ccc4O)[C@H](O)c3ccc(c(Cl)c3)Oc3cc2cc(c3O[C@@H]2O[C@H](CO)[C@@H](O)[C@H](O)[C@H]2O[C@H]2C[C@](C)(N)[C@H](O)[C@H](C)O2)Oc2ccc(cc2Cl)[C@H]1O [vancomycin, Vancomycin] | not lethal; also recorded: no reduction of CFU/mL | intact cells | concentration to which MRSA is susceptible (MRSA [4]): 0.47 µg/mL |
| silver ions | – | – | lowest concentration that induces cytotoxicity (eukaryotic cells): 1.6 ppm; minimum bactericidal concentration (bacteria): 0.1 ppm |
| C[C@@H]1O[C@@H]1P(=O)(O)O [fosfomycin, Fosfomycin] | resistant | intact cells | – |
